# Measured values: patent EP0438311A2, “Di- and tripeptide renin inhibitors” (MERCK & CO. INC., priority 1990, dated 1991)
# Biological target: T1, human plasma renin (Homo sapiens, UniProt P00797)
# T1 construct: from tissue; host or cells: human plasma
# T1 sequence (P00797 67-406): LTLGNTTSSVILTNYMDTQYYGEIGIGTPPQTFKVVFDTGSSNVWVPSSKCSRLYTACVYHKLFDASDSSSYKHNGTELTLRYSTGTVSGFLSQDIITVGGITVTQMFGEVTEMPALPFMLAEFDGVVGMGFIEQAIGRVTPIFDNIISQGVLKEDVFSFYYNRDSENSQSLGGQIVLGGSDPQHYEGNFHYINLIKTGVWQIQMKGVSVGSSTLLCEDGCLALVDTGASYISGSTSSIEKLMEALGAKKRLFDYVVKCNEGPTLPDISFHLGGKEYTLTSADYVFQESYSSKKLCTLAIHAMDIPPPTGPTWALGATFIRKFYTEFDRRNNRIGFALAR
# Assay: Inhibition of human plasma renin, in vitro method of Boger et al.
# Assay type: biochemical
# Conditions: J. Med. Chem. (1985) 28, 1779, read-out: IC₅₀
# Protocol: Inhibition of human plasma renin was assayed using the in vitro method described by Boger, et. al., J. Med. Chem. (1985) 28, 1779. IC₅₀-1.3 nM.
row,IC50,Compound
1,6.8 nM,Boc-Phe-His-(ACHP)-6(S)-Methyl-9(S)-Indolizidin-3-One-2(S)-yl [Example 3XX]
2,1 nM,"CCC[C@H]1COC[C@@H]2C[C@@H]([C@H](O)[C@H](CC3CCCCC3)NC(=O)[C@H](Cc3cnc[nH]3)NC(=O)[C@H](Cc3ccccc3)NC(=O)OC(C)(C)C)C(=O)N21 [Example 3E, Boc-Phe-His-(ACHP)-5(S)-Propyl-7-Oxa-9(S)-Indolizidin-3-One-2(S)-yl]"
3,1 nM,"CC(C)(C)OC(=O)N[C@@H](Cc1ccccc1)C(=O)N[C@@H](Cc1cnc[nH]1)C(=O)N[C@@H](CC1CCCCC1)[C@@H](O)[C@@H]1C[C@H]2COC[C@H](C3CCCC3)N2C1=O [Example 3D, Boc-Phe-His-(ACHP)-5(S)-Cyclopentyl-7-Oxa-9(S)-Indolizidin-3-One-2(S)-yl]"

# The next lines start with the compound.
row,Compound,IC50
1,"C=C(C)C[C@H]1COC[C@@H]2C[C@@H]([C@H](O)[C@H](CC3CCCCC3)NC(=O)[C@H](Cc3cnc[nH]3)NC(=O)[C@H](Cc3ccccc3)NC(=O)OC(C)(C)C)C(=O)N12 [Example 3B, Boc-Phe-His-(ACHP)-5(S)-(2-Methallyl)-7-Oxa-9(S)-Indolizidin-3-One-2(S)-yl]",0.97 nM
2,"CC(C)C[C@H]1COC[C@@H]2C[C@@H]([C@H](O)[C@H](CC3CCCCC3)NC(=O)[C@H](Cc3cnc[nH]3)NC(=O)[C@H](Cc3ccccc3)NC(=O)OC(C)(C)C)C(=O)N12 [Example 3C, Boc-Phe-His-(ACHP)-5(S)-(2-Methylpropyl)-7-Oxa-9(S)-Indolizidin-3-One-2(S)-yl]",2 nM
3,"C=CC[C@H]1COC[C@@H]2C[C@@H]([C@H](O)[C@H](CC3CCCCC3)NC(=O)[C@H](Cc3c[nH]cn3)NC(=O)[C@H](Cc3ccccc3)NC(=O)OC(C)(C)C)C(=O)N21 [Example 3A, Boc-Phe-His-(ACHP)-5(S)-Allyl-7-Oxa-9(S)-Indolizidin-3-One-2(S)-yl]",1.3 nM
